Test results taken from patent publication US20250027127A1, “C[…] BACTERIA” (priority 2021, published 2025).

How the values were obtained:
[1] = room temperature
Clz9 = assay: In vitro assays with Clz9 wild type and variants; format: biochemical, Streptomyces sp. CNH-287; conditions: 12 hours, 37° C., pH 7.5
Method: (§1) The in vitro assays were performed following a modified procedure that was previously reported.^1 Assays (0.1 mL) contained 100 mM potassium phosphate buffer pH 7.5, 0.1 mg/mL^−1 catalase, 10 μL DMSO, 1 μL of a 20 mM stock solution of substrate and were initiated by addition of 20 μM wild type Clz9 or Tcz9 or their respective variants, unless otherwise altered to investigate the thermal and solvent effects on enzyme activity or product stability during time course experiments. Assays were allowed to incubate for 12 hat 37° C. before quenching with 150 μL acetonitrile. Assays were then centrifuged at 14000×g for 30 minutes and passed through a […] filter before injecting 50 μL of the solution for LC-MS analysis at a flow rate of 0.75 mL/min with a mobile phase combination of water+0.1% formic acid (A) and acetonitrile+0.1% formic acid (B) using a gradient as follows: 50% (B), 0 to 2 minutes; 50 to 100% (B), 2 to 10 min; 100% (B), 10 to 17 min; 100% to 50% (B), 17 to 18 min; 50% (B), 18 to 20 minutes.

[2] = system: daurichromenic acid (DCA) synthase; conditions: cited from earlier work
Tcz9 T405Y = format: cell-based, Actinomycete sp. AJS-327; conditions: I mM substrate, IL culture, 48 hours
Tcz9 = assay: In vitro assays with Tcz9 wild type and variants; format: biochemical, Actinomycete sp. AJS-327; conditions: 12 hours, 37° C., pH 7.5
Method: as §1

Structure (SMILES): O=C1C=C2C(=C(O)/C1=c1\ccc3cc(Cl)c(Cl)n13)C(=O)n1c2cc(Cl)c1Cl [compound 6]
- stability in aqueous solutions [1]: unexpectedly stable

Structure (SMILES): O=C1C=C2C(=C(O)/C1=c1/ccc3cc(Cl)c(Cl)n13)C(=O)n1c2cc(Cl)c1Cl [compound 7]
- stability in aqueous solutions [1]: unexpectedly stable

Structure (SMILES): CCCCCc1cc(O)c(C/C=C(\C)CCC=C(C)C)c(O)c1C(=O)O [compound 12a, cannabigerolic acid]
- activity with wild type Clz9 (Clz9; 5 mol %): showed activity
- activity with Clz9 F156T (Clz9): nearly consumed all
- activity with Clz9 T438Y (Clz9): increased conversion
- activity with DCA synthase [2]: no activity
- conversion of substrate to products 15a and 17a (Tcz9 T405Y): approximately 80%
- activity with wild type Tcz9 (Tcz9; 5 mol %): showed activity
- activity with Tcz9 E368N (Tcz9): consumed all
- activity with Tcz9 T124F (Tcz9): abolished activity
- activity with Tcz9 T405Y (Tcz9): increased conversion

Structure (SMILES): CC(C)=CCC/C(C)=C/Cc1c(O)cc(C)c(C(=O)O)c1O [compound 12c, cannabigerorcinic acid]
- activity with the Clz9 enzymes (wild type and three variants) (Clz9): slightly different activity profile than 12b and 12a
- activity with the Tcz9 enzymes (wild type and three variants) (Tcz9): slightly different activity profile than 12b and 12a

Structure (SMILES): CC(C)=CCC/C(C)=C/CC/C(C)=C/Cc1c(O)cc(C)c(C(=O)O)c1O [compound 19, grifolic acid]
- activity with the Clz9 enzymes (wild type and three variants) (Clz9): no activity
- activity with Tcz9 T124F (Tcz9): completely abolished activity
- activity with the Tcz9 enzymes (wild type and three variants) (Tcz9): three of the four Tcz9 enzymes fully consumed
